Data on one molecule can be found in patent US20110245173A1, “Long-Acting GLP-1 Derivatives, and Methods of Treating Cardiac Dysfunction” (priority 2008, published 2011).

The structures appear in SMILES notation.

For data set [1] the following is noted: cited from earlier work.
The nature of data set [2]: Pharmacokinetics in plasma after single bolus intravenous administration to rats. Details: species or system Sprague Dawley rats. The following applies: rat, in vivo; for AUC(0-inf) / AUC(0-t) / Cmax / clearance / half-life: male, Sprague Dawley. The procedure: GLP-1 (9-36) analogues containing C-terminal extensions (FIG. 2) were tested in 9 week old male Sprague Dawley rats to evaluate biological half-life as well as other pharmacokinetic properties of the analogues. Rats used in the study were acclimated to laboratory conditions for approximately 1 week prior to testing. Polypeptide analogues were prepared as solutions for intravenous administration (bolus injection in the jugular vein) at concentrations of 0.15 mg/mL and 1.5 mg/mL in appropriate buffers. The compounds were then injected while the animals were still under anesthesia. Blood samples were taken form each animal at no more than 5 occasions. Following dose administration, blood samples (0.3 to 0.4 mL) were obtained by jugular venipuncture (lithium heparin was used as an anticoagulant) at selected time points (0, 2.5, 5, 10 and 15 minutes or 30, 45, 60, 120 and 240 minutes). The samples were analyzed for parent drug by LC-MS/MS. Numerical data was subjected to calculation of group mean values, standard deviations and coefficients of variation (expressed as a percent), where appropriate. The pharmacokinetic analysis (non-compartmental) of plasma concentration was performed using the PhAST software program (Version 2.3-004, Pheonix International Life Sciences Inc.). The highest experimental concentration was considered the peak concentration (Cmax; observed value). Whenever possible, the observed terminal phase rate constant (Kel) was calculated from the terminal 3 or more points (non-zero and non-Cmax points) of the log-linear regression. The number of points included in the regression analysis was such as to optimize r^2 value calculated for the regression. Terminal phase half-life (t1/2) was determined by dividing 0.693 by Kel. The area under the plasma concentration of each compound versus time-curve from time zero to the last quantifiable concentration (AUC0-t) was calculated by the linear trapezoidal method (Bailer, A. J., (1988) J. Pharmacokin. Biopharm., 1, 303-309). AUC0-∞, the area under the plasma concentration versus time curve from time zero to infinity, was calculated as the sum of AUC0-t plus the ratio of the last plasma concentration to Kel. Values below the limit of quantification were assigned a value of zero for pharmacokinetic analysis.

For the molecule `CC[C@H](C)[C@H](NC(=O)[C@H](Cc1ccccc1)NC(=O)[C@H](CCC(=O)O)NC(=O)[C@H](CCCCN)NC(=O)[C@H](C)NC(=O)[C@H](C)NC(=O)[C@H](CCC(N)=O)NC(=O)CNC(=O)[C@H](CCC(=O)O)NC(=O)[C@H](CC(C)C)NC(=O)[C@H](Cc1ccc(O)cc1)NC(=O)[C@H](CO)NC(=O)[C@H](CO)NC(=O)[C@@H](NC(=O)[C@H](CC(=O)O)NC(=O)[C@H](CO)NC(=O)[C@@H](NC(=O)[C@H](Cc1ccccc1)NC(=O)[C@@H](NC(=O)CNC(=O)[C@@H](N)CCC(=O)O)[C@@H](C)O)[C@@H](C)O)C(C)C)C(=O)N[C@@H](C)C(=O)N[C@@H](Cc1c[nH]c2ccccc12)C(=O)N[C@@H](CC(C)C)C(=O)N[C@H](C(=O)N[C@@H](CCCCN)C(=O)NCC(=O)N[C@@H](CCCNC(=N)N)C(N)=O)C(C)C` [DGS70], in data set [1], the half-life in vivo was 2 to 4 min. In data set [2] (0.15 mg/kg), the AUC(0-inf) (as a rule, the area under the concentration-time curve extrapolated to infinity) was 65.1 ng·h/mL; the exposure AUC(0-t) (usually exposure summed from dosing to a finite time, without extrapolation to infinity) is 63.8 ng·h/mL; the peak level (Cmax) was 1060 ng/mL; the clearance (as a rule, the volume of plasma or blood freed of the substance per unit of time) was 38.4 mL/min/kg. In addition, the “Tmax: Time to Cmax” value in data set [2] (0.15 mg/kg) was 2.50 min. Also, the half-life – broadly, how long it takes for the measured level to halve – in data set [2] (0.15 mg/kg, T1/2: Terminal phase half-life) came out at 1.64 min. Moreover, in data set [2] (1.5 mg/kg), the AUC(0-inf) was 679 ng·h/mL, the AUC(0-t) is 672 ng·h/mL, the Cmax (usually the maximum level reached in the sampled fluid or tissue) turned out to be 10600 ng/mL and the clearance was found to be 36.8 mL/min/kg. For the same molecule, in data set [2] (1.5 mg/kg), the “Tmax: Time to Cmax” value is reported as 2.50 min. In data set [2] (1.5 mg/kg, T1/2: Terminal phase half-life), this molecule had a half-life of 2.22 min. The same molecule gave a half-life in data set [2] (1.5 mg/kg, half-life) of 1.6 to 2.2 min.
